System: Micrococcus sedentarius NCIMB 40287
Assay: Antibiotic sensitivities by the disc method
Assay type: cell-based
Conditions: disc amount as printed per antibiotic (1 unit, 5-30 μg)

| Compound | Antibiotic sensitivity |
| --- | --- |
| CN[C@H](CC(C)C)C(=O)N[C@H]1C(=O)N[C@@H](CC(N)=O)C(=O)N[C@H]2C(=O)N[C@H]3C(=O)N[C@H](C(=O)N[C@H](C(=O)O)c4cc(O)cc(O)c4-c4cc3ccc4O)[C@H](O)c3ccc(c(Cl)c3)Oc3cc2cc(c3O[C@@H]2O[C@H](CO)[C@@H](O)[C@H](O)[C@H]2O[C@H]2C[C@](C)(N)[C@H](O)[C@H](C)O2)Oc2ccc(cc2Cl)[C@H]1O [Vanomycin] | S |
| Neomycin | S |

Source: US5213978A, “Protease from Micrococcus sedentarius for degrading protein of human callus or corn tissue” (Scholl Plc, priority 1990, dated 1993)
